The values that follow come from ChEMBL document CHEMBL1201862, “PubChem BioAssay data set” (2004).

Each structure is given as a SMILES string.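 1) Cells in 96-well plates. 2) Compound, 48 h, 5 concentrations. 3) Linear interpolation between surrounding doses. 4) Unreached endpoint = highest concentration. Abbreviation: GI50, concentration required for 50% inhibition of growth.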 Calls of active or inactive are those of the source. Rule as the data show it: active = GI50 up to about 1.1 µM and inactive = higher.

Some test systems named below: 786-0; A549; CAKI-1; COLO 205; HCT-15; HT-29; IGROV-1; MCF7; MDA-MB-435; NCI-H226; NCI-H23; PC-3; RXF 393; SF-268; SF-539; SK-MEL-28; SN12C; SNB-75; TK-10; UO-31.
Assay in all cases: NCI-60 cell line screen, 48 h

On to `CC(C)NC(=O)CN1CCN(C2=CC(=O)c3c(O)ccc(O)c3C2=O)CC1`, for which the GI50 in the test with 786-0 is 16.4 µM (inactive); in the test on A549, 16.4 µM (inactive); in the test with CAKI-1, 26.2 µM (inactive); in the test with COLO 205, 3 µM (inactive); in the test with HCT-15 it was 8.75 µM; in the test on HT-29, 3.62 µM (inactive). The GI50 was 14.8 µM (inactive) in the test with IGROV-1; 2.71 µM (inactive) in the test on MCF7; 1.93 µM (inactive) in the test on MDA-MB-435; 31.4 µM (inactive) with NCI-H226; 9.4 µM (inactive) in the test on NCI-H23; 17.5 µM (inactive) in the test on PC-3. The GI50 is 17.2 µM (inactive) in the test with RXF 393; 24.3 µM (inactive) in the test with SF-268; 16.7 µM (inactive) with SF-539; 17.1 µM (inactive) in the test on SK-MEL-28; 14.5 µM (inactive) with SN12C; 18.2 µM (inactive) in the test on SNB-75. Further, the GI50 in the test with TK-10 is 17.1 µM (inactive); with UO-31 it was 18.3 µM (inactive).

Regarding `CN(C)Cc1cc(C(C)(C)C)cc(C2CCCCC2)c1O`, the GI50 is 20.7 µM (inactive) in the test on 786-0; 13.6 µM (inactive) with A549; 19.9 µM (inactive) in the test with CAKI-1; 14.2 µM (inactive) in the test on COLO 205; 15.3 µM in the test on HCT-15; 2.86 µM (inactive) with HT-29. Moreover, the GI50 was 18.8 µM (inactive) in the test with IGROV-1; 18.3 µM (inactive) with MCF7; 20.3 µM (inactive) in the test on MDA-MB-435; 15.7 µM (inactive) with NCI-H226; 24.9 µM (inactive) in the test on NCI-H23; 13.6 µM (inactive) in the test on PC-3. Moreover, the GI50 is 12.6 µM (inactive) in the test on RXF 393; 16.8 µM (inactive) in the test on SF-268; 10.9 µM (inactive) in the test on SF-539; 13.2 µM (inactive) with SK-MEL-28; 15.7 µM (inactive) in the test with SN12C; 10.3 µM (inactive) in the test with SNB-75. In addition, the GI50 in the test on TK-10 was 15.5 µM (inactive); in the test on UO-31 it was 17.7 µM (inactive).

In the case of `S=c1nc(N2CCCCC2)c2cn[nH]c2[nH]1`, the GI50 in the test on 786-0 is 88.5 µM (inactive); in the test on A549 it was 76.7 µM (inactive); with CAKI-1, 27.7 µM (inactive); with COLO 205, 28.8 µM (inactive); in the test with HCT-15, 87.9 µM; in the test with HT-29, 41.8 µM (inactive). Moreover, the GI50 is 22.1 µM (inactive) in the test with IGROV-1; 34.6 µM (inactive) in the test on MCF7; 46.1 µM (inactive) in the test with MDA-MB-435; > 100 µM (inactive) in the test with NCI-H226; 40.4 µM (inactive) in the test on NCI-H23; 59.2 µM (inactive) with PC-3. Further, the GI50 in the test on RXF 393 was 91.8 µM (inactive); in the test on SF-268, 78 µM (inactive); in the test on SF-539, 52.6 µM (inactive); with SK-MEL-28, 65.6 µM (inactive); in the test with SN12C, 79.8 µM (inactive); in the test on SNB-75, > 100 µM (inactive). Further, the GI50 is 39.2 µM (inactive) with TK-10 and 23.9 µM (inactive) in the test on UO-31.

On to `NC1=Nc2ccccc2Sc2nncn21`, for which the GI50 is > 100 µM (inactive) with 786-0; > 100 µM (inactive) with A549; > 100 µM (inactive) in the test with CAKI-1; > 100 µM (inactive) in the test with COLO 205; greater than 100 µM with HCT-15; > 100 µM (inactive) with HT-29. Moreover, the GI50 with IGROV-1, in the test with MCF7, with MDA-MB-435, in the test on NCI-H226, in the test on NCI-H23 and in the test on PC-3 was > 100 µM (inactive) throughout. In addition, the GI50 in the test on RXF 393, with SF-268, in the test with SF-539, in the test with SK-MEL-28, with SN12C and with SNB-75 was > 100 µM (inactive) throughout. Moreover, the GI50 in the test with TK-10 and in the test on UO-31 was > 100 µM (inactive) each time.

Consider `c1ccc(/N=C2/SC(c3ccccc3)(c3ccccc3)c3ccccc32)cc1`, for which the GI50 with 786-0 is > 100 µM (inactive); in the test on A549, > 100 µM (inactive); with CAKI-1, > 100 µM (inactive); in the test with COLO 205, > 100 µM (inactive); in the test on HCT-15, greater than 100 µM; in the test on HT-29 it was > 100 µM (inactive). For the same compound, the GI50 is > 100 µM (inactive) with IGROV-1; 87.7 µM (inactive) with MCF7; > 100 µM (inactive) with MDA-MB-435; > 100 µM (inactive) with NCI-H226; > 100 µM (inactive) with NCI-H23; > 100 µM (inactive) in the test on PC-3. For the same compound, the GI50 in the test with RXF 393, in the test on SF-268, in the test on SF-539, in the test with SK-MEL-28, in the test with SN12C and with SNB-75 was > 100 µM (inactive) in each case. In addition, the GI50 in the test with TK-10 and in the test with UO-31 was > 100 µM (inactive) in each case.

Take `Cc1cn(C2OC(CO)C(O)C2F)c(=O)[nH]c1=O` (stereo not given): the GI50 in the test with 786-0 was 87.5 µM (inactive); with A549, 61.5 µM (inactive); in the test on CAKI-1 it was > 100 µM (inactive); with COLO 205, > 100 µM (inactive); in the test with HCT-15, greater than 100 µM; with HT-29 it was > 100 µM (inactive). Further, the GI50 with IGROV-1, in the test with MCF7, in the test on MDA-MB-435, with NCI-H226, with NCI-H23 and with PC-3 was > 100 µM (inactive) throughout. In addition, the GI50 with RXF 393 was 43 µM (inactive); in the test with SF-268 it was > 100 µM (inactive); with SF-539 it was > 100 µM (inactive); in the test with SK-MEL-28, > 100 µM (inactive); in the test with SN12C, > 100 µM (inactive); with SNB-75 it was > 100 µM (inactive). The GI50 with TK-10 and with UO-31 was > 100 µM (inactive) in each case.

Turning to `COC(=O)C1=NN2c3ccccc3C(=O)OCCC2C1` (stereo not given), the GI50 in the test with 786-0 is > 100 µM (inactive); in the test on A549, > 100 µM (inactive); with CAKI-1 it was > 100 µM (inactive); in the test on COLO 205, > 100 µM (inactive); in the test with HCT-15, greater than 100 µM; in the test on HT-29, > 100 µM (inactive). The GI50 in the test with IGROV-1 was 71.9 µM (inactive); with MCF7, > 100 µM (inactive); with MDA-MB-435, > 100 µM (inactive); with NCI-H226, > 100 µM (inactive); in the test with NCI-H23, > 100 µM (inactive); with PC-3 it was > 100 µM (inactive). Moreover, the GI50 in the test with RXF 393, with SF-268, in the test on SF-539, in the test on SK-MEL-28, with SN12C and in the test with SNB-75 was > 100 µM (inactive) each time. Also, the GI50 in the test on TK-10 and with UO-31 was > 100 µM (inactive) in each case.

On to `CCOC(=O)NC(NC1=NCCS1)(C(=O)OCC)C(F)(F)F` (stereo not given), for which the GI50 with 786-0 was > 100 µM (inactive); with A549, > 100 µM (inactive); with CAKI-1 it was > 100 µM (inactive); with COLO 205 it was > 100 µM (inactive); in the test with HCT-15, greater than 100 µM; in the test with HT-29 it was > 100 µM (inactive). Besides, the GI50 in the test on IGROV-1, in the test on MCF7, in the test on MDA-MB-435, in the test with NCI-H226, in the test on NCI-H23 and with PC-3 was > 100 µM (inactive) in each case. Besides, the GI50 with RXF 393, in the test on SF-268, with SF-539, in the test with SK-MEL-28, in the test with SN12C and in the test with SNB-75 was > 100 µM (inactive) throughout. Further, the GI50 with TK-10 and in the test on UO-31 was > 100 µM (inactive) in each case.

For the compound `CCN(CC)CCN(C)CCc1ccc(Br)cc1`, the GI50 in the test on 786-0 was 53.7 µM (inactive); in the test on A549, > 100 µM (inactive); with CAKI-1, > 100 µM (inactive); in the test with COLO 205 it was 17.4 µM (inactive); with HCT-15, 61.1 µM; in the test with HT-29, 24.9 µM (inactive). For the same compound, the GI50 is > 100 µM (inactive) with IGROV-1; 48.8 µM (inactive) in the test with MCF7; 53.1 µM (inactive) in the test on MDA-MB-435; 24.7 µM (inactive) in the test on NCI-H226; > 100 µM (inactive) with NCI-H23; 54 µM (inactive) in the test on PC-3. Moreover, the GI50 with RXF 393 is 38.5 µM (inactive); with SF-268, > 100 µM (inactive); in the test on SF-539, 30.8 µM (inactive); with SK-MEL-28, 41.7 µM (inactive); in the test on SN12C, > 100 µM (inactive); in the test on SNB-75 it was 46.7 µM (inactive). Moreover, the GI50 was > 100 µM (inactive) in the test with TK-10 and 83.8 µM (inactive) in the test on UO-31.

In the case of `COC(=O)c1ccccc1CC1Cc2cc3c(cc2C1)CCC3`, the GI50 is 36.5 µM (inactive) in the test on 786-0; 36.1 µM (inactive) in the test on A549; 37.9 µM (inactive) with CAKI-1; 23.8 µM (inactive) in the test on COLO 205; 48.8 µM in the test on HCT-15; 29.2 µM (inactive) with HT-29. The GI50 with IGROV-1 was 37.3 µM (inactive); in the test with MCF7, 45.9 µM (inactive); in the test with MDA-MB-435, 29.4 µM (inactive); in the test on NCI-H226, 35.2 µM (inactive); in the test on NCI-H23, 38.5 µM (inactive); with PC-3, 39.3 µM (inactive). The GI50 with RXF 393 is 20.9 µM (inactive); with SF-268 it was 40.8 µM (inactive); with SF-539, 54.2 µM (inactive); with SK-MEL-28, 29.3 µM (inactive); in the test on SN12C, 40.2 µM (inactive); with SNB-75, 26.7 µM (inactive). For the same compound, the GI50 is > 100 µM (inactive) in the test with TK-10 and 39.4 µM (inactive) in the test with UO-31.
